Values of other authors in patent US20080226715A1, “THERAPEUTIC COMPOSITIONS AND METHODS” (priority 2007, published 2008).

Experiments:
[1] = in vivo
[2] = after oral dosing; normal subjects

Compound	bioavailability [1] [%]	pharmacokinetics half-life [1] [h]	time of peak plasma concentrations [2]
O=C(O)CCc1nc(-c2ccccc2)c(-c2ccccc2)o1 [Oxaprozin]	95	42 to 50	
CC(=O)Nc1ccc(O)cc1 [acetaminophen]			about 1 hour
CC(=O)Oc1ccccc1C(=O)O [aspirin]			about 1 hour
